The results in this text go back to ChEMBL document CHEMBL3991601, “The target landscape of clinical kinase drugs” (Science, 2017).

The target in experiment [1] is Ephrin type-A receptor 4 (Homo sapiens, UniProt P54764).
Experiment [2] deals with T1, Serine/threonine-protein kinase LATS1 (Homo sapiens, UniProt O95835).
T1 sequence (O95835 whole entry): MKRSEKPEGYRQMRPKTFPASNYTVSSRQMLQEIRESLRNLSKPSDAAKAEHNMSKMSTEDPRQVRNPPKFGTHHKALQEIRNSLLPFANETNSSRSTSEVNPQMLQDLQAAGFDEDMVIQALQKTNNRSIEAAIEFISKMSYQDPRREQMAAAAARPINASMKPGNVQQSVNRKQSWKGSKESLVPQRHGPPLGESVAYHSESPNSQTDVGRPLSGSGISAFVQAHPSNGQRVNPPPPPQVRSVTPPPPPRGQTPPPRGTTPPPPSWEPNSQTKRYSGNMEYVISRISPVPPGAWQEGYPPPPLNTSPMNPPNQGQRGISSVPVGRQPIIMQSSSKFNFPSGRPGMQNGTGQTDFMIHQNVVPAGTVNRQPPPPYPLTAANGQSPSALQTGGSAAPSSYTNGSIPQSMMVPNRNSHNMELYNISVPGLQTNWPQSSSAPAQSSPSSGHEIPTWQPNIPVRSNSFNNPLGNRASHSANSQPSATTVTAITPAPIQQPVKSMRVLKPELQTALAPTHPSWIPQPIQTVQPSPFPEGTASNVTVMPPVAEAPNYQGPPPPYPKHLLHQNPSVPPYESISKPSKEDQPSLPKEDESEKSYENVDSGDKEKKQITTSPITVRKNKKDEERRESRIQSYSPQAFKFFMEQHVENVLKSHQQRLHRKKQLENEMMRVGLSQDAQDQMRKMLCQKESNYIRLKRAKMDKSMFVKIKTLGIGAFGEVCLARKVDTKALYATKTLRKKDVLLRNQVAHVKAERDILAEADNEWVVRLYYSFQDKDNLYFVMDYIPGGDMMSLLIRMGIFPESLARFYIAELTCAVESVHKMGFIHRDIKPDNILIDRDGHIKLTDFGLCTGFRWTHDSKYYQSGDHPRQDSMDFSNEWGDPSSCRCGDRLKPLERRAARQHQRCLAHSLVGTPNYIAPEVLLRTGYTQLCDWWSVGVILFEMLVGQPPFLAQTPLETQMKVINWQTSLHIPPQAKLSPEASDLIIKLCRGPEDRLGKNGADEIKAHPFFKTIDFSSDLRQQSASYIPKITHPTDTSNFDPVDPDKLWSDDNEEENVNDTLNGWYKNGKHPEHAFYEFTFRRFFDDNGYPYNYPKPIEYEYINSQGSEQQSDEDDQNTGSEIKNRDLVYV

In experiment [3] the target is Mitogen-activated protein kinase kinase kinase kinase 4 (Homo sapiens, UniProt O95819).
Sequence of Mitogen-activated protein kinase kinase kinase kinase 4 (O95819 whole entry): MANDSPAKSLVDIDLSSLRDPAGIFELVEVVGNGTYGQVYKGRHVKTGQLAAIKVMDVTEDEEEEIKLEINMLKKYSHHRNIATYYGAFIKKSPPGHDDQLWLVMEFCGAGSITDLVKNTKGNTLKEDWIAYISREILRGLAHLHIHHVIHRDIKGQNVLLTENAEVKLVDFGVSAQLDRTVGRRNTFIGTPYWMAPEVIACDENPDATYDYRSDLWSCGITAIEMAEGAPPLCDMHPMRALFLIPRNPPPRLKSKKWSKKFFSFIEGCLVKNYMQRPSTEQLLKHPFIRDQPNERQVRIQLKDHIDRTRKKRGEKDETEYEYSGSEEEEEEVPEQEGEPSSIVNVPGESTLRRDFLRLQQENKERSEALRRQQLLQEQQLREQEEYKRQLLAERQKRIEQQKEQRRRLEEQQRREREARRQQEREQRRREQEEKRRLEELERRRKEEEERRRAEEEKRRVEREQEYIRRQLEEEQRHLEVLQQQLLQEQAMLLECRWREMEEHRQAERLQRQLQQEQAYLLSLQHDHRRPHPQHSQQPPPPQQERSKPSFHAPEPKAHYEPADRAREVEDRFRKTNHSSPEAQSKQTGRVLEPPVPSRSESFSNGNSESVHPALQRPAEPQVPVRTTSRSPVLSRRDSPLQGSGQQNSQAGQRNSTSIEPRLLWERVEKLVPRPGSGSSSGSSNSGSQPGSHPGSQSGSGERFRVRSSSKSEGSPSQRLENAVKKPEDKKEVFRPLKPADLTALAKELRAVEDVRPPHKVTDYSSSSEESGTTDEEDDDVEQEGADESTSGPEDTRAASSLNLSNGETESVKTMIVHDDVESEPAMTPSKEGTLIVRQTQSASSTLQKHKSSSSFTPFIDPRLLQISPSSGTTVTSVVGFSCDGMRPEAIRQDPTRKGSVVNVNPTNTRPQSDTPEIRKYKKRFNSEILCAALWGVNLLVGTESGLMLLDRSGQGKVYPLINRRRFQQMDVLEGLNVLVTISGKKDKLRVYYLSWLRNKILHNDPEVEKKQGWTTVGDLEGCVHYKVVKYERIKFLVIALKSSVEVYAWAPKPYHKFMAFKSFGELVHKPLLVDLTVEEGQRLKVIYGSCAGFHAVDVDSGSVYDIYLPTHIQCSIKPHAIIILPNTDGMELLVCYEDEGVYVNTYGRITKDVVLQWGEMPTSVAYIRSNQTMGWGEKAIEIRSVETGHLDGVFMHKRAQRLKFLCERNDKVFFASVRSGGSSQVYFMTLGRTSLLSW
The target in experiment [4] is T2, Serine/threonine-protein kinase Nek2 (Homo sapiens, UniProt P51955).
T2 sequence (P51955 whole entry): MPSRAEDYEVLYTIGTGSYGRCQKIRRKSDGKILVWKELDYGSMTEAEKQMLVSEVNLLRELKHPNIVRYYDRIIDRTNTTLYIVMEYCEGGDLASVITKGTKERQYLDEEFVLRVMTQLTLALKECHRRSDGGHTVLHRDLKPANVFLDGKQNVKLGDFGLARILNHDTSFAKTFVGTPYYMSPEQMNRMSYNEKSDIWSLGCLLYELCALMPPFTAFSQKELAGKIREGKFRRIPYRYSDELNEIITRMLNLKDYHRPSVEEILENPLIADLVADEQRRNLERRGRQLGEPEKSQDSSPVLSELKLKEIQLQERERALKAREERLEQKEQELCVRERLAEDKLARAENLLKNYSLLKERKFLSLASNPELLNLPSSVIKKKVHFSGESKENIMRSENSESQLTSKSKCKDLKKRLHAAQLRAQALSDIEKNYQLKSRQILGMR

Experiment [5] deals with Ribosomal protein S6 kinase alpha-6 (Homo sapiens, UniProt Q9UK32).
Sequence of Ribosomal protein S6 kinase alpha-6 (Q9UK32 whole entry): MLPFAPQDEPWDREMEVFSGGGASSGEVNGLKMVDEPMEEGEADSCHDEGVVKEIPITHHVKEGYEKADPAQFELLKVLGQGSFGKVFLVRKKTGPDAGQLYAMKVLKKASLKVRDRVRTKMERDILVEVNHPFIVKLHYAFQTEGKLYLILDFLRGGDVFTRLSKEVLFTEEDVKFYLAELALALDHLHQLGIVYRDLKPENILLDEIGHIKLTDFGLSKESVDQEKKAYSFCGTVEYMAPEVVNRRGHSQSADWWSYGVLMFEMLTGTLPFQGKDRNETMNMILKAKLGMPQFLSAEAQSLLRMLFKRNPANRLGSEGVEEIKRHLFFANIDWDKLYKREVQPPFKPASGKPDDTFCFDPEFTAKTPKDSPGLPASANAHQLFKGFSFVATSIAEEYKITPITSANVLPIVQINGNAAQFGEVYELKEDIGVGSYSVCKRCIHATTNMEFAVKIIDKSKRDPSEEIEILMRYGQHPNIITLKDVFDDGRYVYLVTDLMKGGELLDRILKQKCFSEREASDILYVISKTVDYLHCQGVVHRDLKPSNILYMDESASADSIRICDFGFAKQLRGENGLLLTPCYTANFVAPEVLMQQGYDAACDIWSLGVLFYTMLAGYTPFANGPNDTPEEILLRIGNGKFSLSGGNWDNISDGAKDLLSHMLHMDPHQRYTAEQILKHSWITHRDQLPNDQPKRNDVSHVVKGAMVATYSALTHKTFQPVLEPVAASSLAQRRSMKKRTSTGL
For experiment [6], the target named is T3, ATP-dependent RNA helicase DDX1 (Homo sapiens, UniProt Q92499).
T3 sequence (Q92499 whole entry): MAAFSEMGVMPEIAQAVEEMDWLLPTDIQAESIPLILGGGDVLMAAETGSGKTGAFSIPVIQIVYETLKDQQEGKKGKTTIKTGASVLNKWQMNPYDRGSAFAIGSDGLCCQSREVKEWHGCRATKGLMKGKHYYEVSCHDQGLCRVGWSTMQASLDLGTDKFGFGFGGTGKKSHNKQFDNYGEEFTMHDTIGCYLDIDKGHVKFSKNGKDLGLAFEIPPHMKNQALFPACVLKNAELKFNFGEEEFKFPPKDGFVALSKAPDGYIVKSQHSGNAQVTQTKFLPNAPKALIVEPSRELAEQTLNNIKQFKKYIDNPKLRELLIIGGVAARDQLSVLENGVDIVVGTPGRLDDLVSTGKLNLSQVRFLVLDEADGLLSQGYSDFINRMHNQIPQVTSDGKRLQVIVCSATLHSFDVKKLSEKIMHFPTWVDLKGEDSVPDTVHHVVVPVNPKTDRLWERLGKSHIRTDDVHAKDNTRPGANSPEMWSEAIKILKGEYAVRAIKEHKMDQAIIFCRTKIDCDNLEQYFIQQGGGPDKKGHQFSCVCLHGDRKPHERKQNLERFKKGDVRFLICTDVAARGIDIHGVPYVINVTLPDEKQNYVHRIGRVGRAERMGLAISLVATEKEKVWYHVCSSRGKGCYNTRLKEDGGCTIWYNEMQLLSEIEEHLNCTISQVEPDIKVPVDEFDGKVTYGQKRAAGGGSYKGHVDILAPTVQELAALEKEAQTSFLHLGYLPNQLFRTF

Activity calls are given as the source filed them. Cut-off read from the data, not from the text of the source, for most assays here: actives have a measured Kd and inactives only a lower limit.
Note: in the data inactive means no Kd found up to 30 µM.

Sequence of Ephrin type-A receptor 4 (P54764 whole entry): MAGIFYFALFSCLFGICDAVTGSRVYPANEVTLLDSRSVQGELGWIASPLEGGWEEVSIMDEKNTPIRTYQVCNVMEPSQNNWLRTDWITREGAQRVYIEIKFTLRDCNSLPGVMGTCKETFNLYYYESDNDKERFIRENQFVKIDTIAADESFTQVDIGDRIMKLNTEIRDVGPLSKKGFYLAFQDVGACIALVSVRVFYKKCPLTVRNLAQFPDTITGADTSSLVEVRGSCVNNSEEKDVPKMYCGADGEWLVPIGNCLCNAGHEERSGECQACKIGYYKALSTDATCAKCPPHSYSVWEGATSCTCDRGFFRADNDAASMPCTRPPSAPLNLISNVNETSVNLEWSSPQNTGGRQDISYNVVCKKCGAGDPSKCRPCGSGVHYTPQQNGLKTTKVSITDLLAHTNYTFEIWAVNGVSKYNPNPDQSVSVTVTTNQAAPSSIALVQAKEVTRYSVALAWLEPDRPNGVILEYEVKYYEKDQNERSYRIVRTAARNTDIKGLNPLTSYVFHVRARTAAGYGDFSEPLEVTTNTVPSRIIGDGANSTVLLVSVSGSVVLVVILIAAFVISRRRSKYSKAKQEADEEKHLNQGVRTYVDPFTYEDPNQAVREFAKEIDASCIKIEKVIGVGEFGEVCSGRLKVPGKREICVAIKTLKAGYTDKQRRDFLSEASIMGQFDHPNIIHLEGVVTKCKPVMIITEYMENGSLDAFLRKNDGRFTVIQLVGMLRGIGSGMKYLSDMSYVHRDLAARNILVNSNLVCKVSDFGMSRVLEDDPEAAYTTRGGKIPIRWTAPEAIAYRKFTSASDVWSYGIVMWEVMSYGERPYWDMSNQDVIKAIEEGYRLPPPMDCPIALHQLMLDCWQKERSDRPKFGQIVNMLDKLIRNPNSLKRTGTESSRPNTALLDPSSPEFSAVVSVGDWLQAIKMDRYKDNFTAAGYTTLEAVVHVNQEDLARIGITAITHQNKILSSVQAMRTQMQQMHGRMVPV

With `C[C@@H](Oc1cc(C(=O)Nc2ccc(C(=O)N3CCN(C)CC3)cc2)nnc1N)c1c(Cl)ccc(F)c1Cl`, the Kd in experiment [1], in experiment [2], in experiment [3], in experiment [4] and in experiment [5] was > 30 µM (inactive) throughout.
With `C[C@H]1CNCCCN1S(=O)(=O)c1cccc2cncc(F)c12`, the Kd in experiment [6], in experiment [1], in experiment [2], in experiment [3], in experiment [4] and in experiment [5] was > 30 µM (inactive) each time.
With `CC(=O)c1cnc2ccc(-c3cc(Cl)c(O)c(Cl)c3)nc2c1N[C@H]1CC[C@H](CN(C)C)CC1`, the Kd – broadly, the concentration at which binding is half-saturated – in experiment [6] is > 30 µM (inactive); in experiment [2], 0.014 µM (active); in experiment [3], 0.088 µM; in experiment [4] it was > 30 µM (inactive); in experiment [5] it was 0.057 µM (active).
Consider `CCNC(=O)C#Cc1ccc2c(c1)NC(=O)/C2=C(\Nc1ccc(CN(C)C)cc1)c1ccccc1`, for which the Kd in experiment [6] was > 30 µM (inactive); in experiment [1], > 30 µM (inactive); in experiment [2] it was 0.635 µM (active); in experiment [3], > 30 µM (inactive); in experiment [4], > 30 µM (inactive); in experiment [5], > 30 µM (inactive).
Consider `C=CC(=O)N1CCC[C@H](n2c(=O)n(-c3ccc(Oc4ccccc4)cc3)c3c(N)ncnc32)C1`, for which the Kd in experiment [6], in experiment [1], in experiment [2], in experiment [3], in experiment [4] and in experiment [5] was > 30 µM (inactive) each time.
`Cc1nc2cc(-c3nn(C(C)C)c4ncnc(N)c34)ccc2o1`: the Kd in experiment [6], in experiment [1], in experiment [2], in experiment [4] and in experiment [5] was > 30 µM (inactive) each time.
As to `COCc1c(-c2ccc(NC(=O)Nc3cc(C(F)(F)F)ccc3F)c(F)c2)c2c(N)ncnn2c1CN1CCOCC1`, the Kd in experiment [6] is > 30 µM (inactive); in experiment [1], > 30 µM (inactive); in experiment [2], > 30 µM (inactive); in experiment [3], > 30 µM (inactive); in experiment [4] it was > 30 µM (inactive); in experiment [5], 2.69 µM (active).
Regarding `Nc1ncnc2c1c(-c1cccc(OCc3ccccc3)c1)cn2[C@H]1C[C@@H](CN2CCC2)C1` [AEW-541], the Kd in experiment [6] is > 30 µM (inactive); in experiment [1], > 30 µM (inactive); in experiment [2], 3.88 µM (active); in experiment [3], > 30 µM (inactive); in experiment [4], > 30 µM (inactive); in experiment [5], > 30 µM (inactive).
For the compound `COc1cc(Nc2ncc3c(n2)-c2ccc(Cl)cc2C(c2c(F)cccc2OC)=NC3)ccc1C(=O)O` [ALISERTIB], the Kd in experiment [6], in experiment [2] and in experiment [5] was > 30 µM (inactive) in each case.
On to `O=C(Nc1c[nH]nc1-c1nc2cc(CN3CCOCC3)ccc2[nH]1)NC1CC1` [AT-9283], for which the Kd in experiment [6] was > 30 µM (inactive); in experiment [1], 43.9 µM (active); in experiment [2] it was 0.045 µM (active); in experiment [4], > 30 µM (inactive).
Consider `CNC(=O)c1ccccc1Sc1ccc2c(/C=C/c3ccccn3)n[nH]c2c1` [AXITINIB], for which the Kd in experiment [6] was > 30 µM (inactive).
Turning to `CC(C)(C)c1nc(-c2cccc(NS(=O)(=O)c3c(F)cccc3F)c2F)c(-c2ccnc(N)n2)s1` [DABRAFENIB], the Kd in experiment [6], in experiment [1], in experiment [2], in experiment [3] and in experiment [5] was > 30 µM (inactive) throughout.
Turning to `Cn1cc(C2=C(c3cn(C4CCN(Cc5ccccn5)CC4)c4ccccc34)C(=O)NC2=O)c2ccccc21` [ENZASTAURIN], the Kd in experiment [6] is > 30 µM (inactive).
On the same count and under the same terms, then `C[C@@H](Oc1cc(-n2cnc3ccc(CN4CCN(C)CC4)cc32)sc1C(N)=O)c1ccccc1C(F)(F)F` [GSK-461364], with > 30 µM (inactive).
Take `CCn1cc(-c2ccnc3[nH]c(-c4cccc(CN(C)C)c4)cc23)c(-c2ccc(NC(=O)N(C)C)cc2)n1` [GSK-1070916]: the Kd in experiment [6], in experiment [1], in experiment [2], in experiment [4] and in experiment [5] was > 30 µM (inactive) throughout.
Consider `O=C(Nc1cc(C(F)(F)F)cc(C(F)(F)F)c1)c1cc(Cl)ccc1O` [IMD-0354], for which the Kd in experiment [6], in experiment [1], in experiment [2], in experiment [3] and in experiment [5] was > 30 µM (inactive) in each case.
As for `CNC(=O)c1nn(C)c2c1C(C)(C)Cc1cnc(Nc3ccc(N4CCN(C)CC4)cc3)nc1-2` [MILCICLIB], the dissociation constant Kd is 8.13 µM (active) in experiment [1]; 0.681 µM (active) in experiment [2]; > 30 µM (inactive) in experiment [3]; > 30 µM (inactive) in experiment [4]; > 30 µM (inactive) in experiment [5].
As for `Cc1[nH]c(/C=C2\C(=O)Nc3ccccc32)c(C)c1CCC(=O)O` [ORANTINIB], the Kd in experiment [6], in experiment [1] and in experiment [5] was > 30 µM (inactive) each time.
For `NC(=O)c1c(OCc2c(F)cc(Br)cc2F)nsc1NC(=O)NCCCCN1CCCC1` [OSI-632], the Kd in experiment [1], in experiment [2] and in experiment [5] was > 30 µM (inactive) throughout.
Turning to `CCOc1cc2ncc(C#N)c(Nc3ccc(F)c(Cl)c3)c2cc1NC(=O)/C=C/CN(C)C` [PELITINIB], the Kd in experiment [6], in experiment [1], in experiment [2], in experiment [3] and in experiment [5] was > 30 µM (inactive) each time.
Take `CC(=O)NCC(=O)N1[C@@H]2CC[C@H]1c1ccc(Nc3ncc(C(F)(F)F)c(NC4CCC4)n3)cc12` [PF-03814735]: the Kd in experiment [6] is > 30 µM (inactive); in experiment [1], > 30 µM (inactive); in experiment [2], 0.406 µM (active).
In the case of `O=C(NOCCO)c1cc(CN2OCCCC2=O)c(F)c(F)c1Nc1ccc(I)cc1F` [RO-4987655], the Kd in experiment [6] is > 30 µM (inactive).
`N#CC[C@H](C1CCCC1)n1cc(-c2ncnc3[nH]ccc23)cn1` [RUXOLITINIB]: the Kd in experiment [6] was > 30 µM (inactive).
